Measurements from patent publication US20230015478A1, “GLP-1 RECEPTOR AGONISTS HAVING IMPROVED PHARMACOLOGICAL AND DRUG DELIVERY PROPERTIES” (priority 2021, published 2023).
Square brackets hold non-standard residues; d marks the D form. Peptide text beside a SMILES is read from it. Bip = N[C@@H](Cc1ccc(-c2ccccc2)cc1)C(=O)O; αMePhe(2-F) = C[C@](N)(Cc1ccccc1F)C(=O)O; Phe(2-F) = N[C@@H](Cc1ccccc1F)C(=O)O; Aib = CC(C)(N)C(=O)O

What follows are compounds tested against T1, hGLP1 receptor (Homo sapiens, UniProt P43220) (assay: cAMP HTRF agonist assay in HEK cells co-expressing hGLP1 receptor and CRE-Luciferase). Settings: Table 1; cells marked (0% albumin); read-out: cAMP EC50, nM (0% albumin).
T1 construct: expressed in transfected cells; host or cells: HEK (human embryonic kidney) cells co-expressing hGLP1 receptor and CRE-Luciferase
T1 sequence (P43220 24-463): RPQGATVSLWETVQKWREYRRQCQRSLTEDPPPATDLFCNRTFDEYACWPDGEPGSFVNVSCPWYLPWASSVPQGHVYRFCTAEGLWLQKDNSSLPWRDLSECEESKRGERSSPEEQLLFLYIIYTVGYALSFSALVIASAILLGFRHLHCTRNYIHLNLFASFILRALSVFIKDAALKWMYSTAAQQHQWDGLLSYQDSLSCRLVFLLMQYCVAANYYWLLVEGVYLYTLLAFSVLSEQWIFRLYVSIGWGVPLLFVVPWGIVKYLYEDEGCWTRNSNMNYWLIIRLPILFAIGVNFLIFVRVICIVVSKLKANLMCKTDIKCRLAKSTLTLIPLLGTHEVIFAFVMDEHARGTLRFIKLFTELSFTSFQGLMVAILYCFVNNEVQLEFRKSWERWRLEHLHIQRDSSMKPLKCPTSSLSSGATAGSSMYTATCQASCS
Type: cell-based
Method: Human embryonic kidney cells (HEK) co-expressing the hGLP1 receptor and CRE-Luciferase construct were used to determine agonist potency in this assay. The cells were thawed briefly at 37° C., transferred to a sterile tube and re-suspended in complete media at 37° C. Cells were centrifuged at 1000 rpm for 5 minutes and cells collected; cells were re-suspended in assay buffer consisting of DPBS (GIBCO) with 500 μM of the phosphodiesterase inhibitor IBMX. […] The optimal cell density was determined to be 1000 cells/well; cells were added to wells in 384-well plates containing appropriate pre-prepared dilutions of compounds (test peptides or reference compound exendin-4), sealed and incubated with CO2 for 30 min. Test peptide solutions were diluted from 10 mM stock solutions; for most peptides an initial run was performed in duplicate from a maximal concentration of 1.0 μM, with 11 concentrations tested for each peptide using serial 1:3 dilution from this maximal concentration. […] The agonist assay was a homogeneous time-resolved fluorescence (HTRF) assay (Cisbio).
Following incubation of the cells for 30 minutes with test or reference peptides, 5 μL of the cAMP acceptor cAMP-d2, prepared previously as a working solution from frozen stock (1:20 dilution), was added to each well of the assay plate, along with 5 μL of anti-cAMP antibody-cryptate working solution (diluted 1:20 from frozen stock). The wells were incubated for 1 hour at room temperature, and fluorescence was then read at 665 and 615 nm with an Envision reader with TRF laser. Data were saved and analyzed using Prism software (GraphPad). Concentration-response analysis was performed using 4-parameter logistic fits of the resulting data, and EC50 values obtained for each test and reference compound.
C[C@H](NC(=O)[C@@H](NC(=O)CNC(=O)[C@H](CCC(=O)O)NC(=O)C(C)(C)NC(=O)[C@@H](N)Cc1c[nH]cn1)[C@@H](C)O)C(=O)N[C@H](C(=O)N[C@@H](CO)C(=O)N[C@@H](CC(=O)O)C(=O)N[C@@H](Cc1ccc(-c2ccccc2)cc1)C(=O)N[C@@H](Cc1ccc(-c2ccccc2)cc1)C(N)=O)[C@@H](C)O [3-19, H2N-His-Aib-Glu-Gly-Thr-Ala-Thr-Ser-Asp-Bip-Bip-C(O)NH2] (H-H[Aib]EGTATSD[Bip][Bip]-NH2) gave an EC50 of 2800 nM.

Same assay, conditions: Table 2; cell marked (0% albumin); read-out: cAMP EC50, nM (0% albumin)
C[C@H](NC(=O)[C@H](CCC(=O)O)NC(=O)C(C)(C)NC(=O)[C@@H](N)Cc1c[nH]cn1)C(=O)N[C@H](C(=O)N[C@@H](Cc1ccccc1F)C(=O)N[C@H](C(=O)N[C@@H](CO)C(=O)N[C@@H](CC(=O)O)C(=O)N[C@@H](Cc1ccc(-c2ccccc2)cc1)C(=O)N[C@@H](Cc1ccc(-c2ccccc2)cc1)C(N)=O)[C@@H](C)O)[C@@H](C)O [3-23, H2N-His-Aib-Glu-Ala-Thr-Phe(2F)-Thr-Ser-Asp-Bip-Bip-C(O)NH2] (H-H[Aib]EAT[Phe(2-F)]TSD[Bip][Bip]-NH2) gave an EC50 of 347 nM.

Same assay, conditions: cAMP EC50, nM (0.1% albumin), Table 1; 0.1% albumin
For C[C@@H](O)[C@H](NC(=O)CNC(=O)[C@H](CCC(=O)O)NC(=O)C(C)(C)NC(=O)[C@@H](N)Cc1c[nH]cn1)C(=O)NC(C)(C)C(=O)N[C@H](C(=O)N[C@@H](CO)C(=O)N[C@@H](CC(=O)O)C(=O)N[C@@H](Cc1ccc(-c2ccccc2)cc1)C(=O)N[C@@H](Cc1ccc(-c2ccccc2)cc1)C(N)=O)[C@@H](C)O [3-18, H2N-His-Aib-Glu-Gly-Thr-Aib-Thr-Ser-Asp-Bip-Bip-C(O)NH2] (H-H[Aib]EGT[Aib]TSD[Bip][Bip]-NH2), the EC50 was 152 nM.

Same assay, conditions: cAMP EC50, nM (0.1% albumin), Table 2; 0.1% albumin
For C[C@H](N)C(=O)NC(C)(C)C(=O)N[C@@H](CCC(=O)O)C(=O)NCC(=O)N[C@H](C(=O)N[C@@H](Cc1ccccc1F)C(=O)N[C@H](C(=O)N[C@@H](CO)C(=O)N[C@@H](CC(=O)O)C(=O)N[C@@H](Cc1ccc(-c2ccccc2)cc1)C(=O)N[C@@H](Cc1ccc(-c2ccccc2)cc1)C(N)=O)[C@@H](C)O)[C@@H](C)O [3-20, H2N-Ala-Aib-Glu-Gly-Thr-Phe(2-F)-Thr-Ser-Asp-Bip-Bip-C(O)NH2] (H-A[Aib]EGT[Phe(2-F)]TSD[Bip][Bip]-NH2), the EC50 was 66 nM.
C[C@H](NC(=O)[C@@H](N)Cc1c[nH]cn1)C(=O)N[C@@H](CCC(=O)O)C(=O)NCC(=O)N[C@H](C(=O)N[C@@H](Cc1ccccc1F)C(=O)N[C@H](C(=O)N[C@@H](CO)C(=O)N[C@@H](CC(=O)O)C(=O)N[C@@H](Cc1ccc(-c2ccccc2)cc1)C(=O)N[C@@H](Cc1ccc(-c2ccccc2)cc1)C(N)=O)[C@@H](C)O)[C@@H](C)O [3-21, H2N-His-Ala-Glu-Gly-Thr-Phe(2-F)-Thr-Ser-Asp-Bip-Bip-C(O)NH2] (H-HAEGT[Phe(2-F)]TSD[Bip][Bip]-NH2) gave an EC50 of 0.29 nM.
Compound C[C@H](NC(=O)C(C)(C)NC(=O)[C@@H](N)Cc1c[nH]cn1)C(=O)NCC(=O)N[C@H](C(=O)N[C@@H](Cc1ccccc1F)C(=O)N[C@H](C(=O)N[C@@H](CO)C(=O)N[C@@H](CC(=O)O)C(=O)N[C@@H](Cc1ccc(-c2ccccc2)cc1)C(=O)N[C@@H](Cc1ccc(-c2ccccc2)cc1)C(N)=O)[C@@H](C)O)[C@@H](C)O [3-22, H2N-His-Aib-Ala-Gly-Thr-Phe(2-F)-Thr-Ser-Asp-Bip-Bip-C(O)NH2] (H-H[Aib]AGT[Phe(2-F)]TSD[Bip][Bip]-NH2) has an EC50 of 20.3 nM.
C[C@H](NC(=O)CNC(=O)[C@H](CCC(=O)O)NC(=O)C(C)(C)NC(=O)[C@@H](N)Cc1c[nH]cn1)C(=O)N[C@@H](Cc1ccccc1F)C(=O)N[C@H](C(=O)N[C@@H](CO)C(=O)N[C@@H](CC(=O)O)C(=O)N[C@@H](Cc1ccc(-c2ccccc2)cc1)C(=O)N[C@@H](Cc1ccc(-c2ccccc2)cc1)C(N)=O)[C@@H](C)O [3-24, H2N-His-Aib-Glu-Gly-Ala-Phe(2-F)-Thr-Ser-Asp-Bip-Bip-C(O)NH2] (H-H[Aib]EGA[Phe(2-F)]TSD[Bip][Bip]-NH2) showed an EC50 of 28.1 nM.
With C[C@H](NC(=O)[C@H](Cc1ccccc1F)NC(=O)[C@@H](NC(=O)CNC(=O)[C@H](CCC(=O)O)NC(=O)C(C)(C)NC(=O)[C@@H](N)Cc1c[nH]cn1)[C@@H](C)O)C(=O)N[C@@H](CO)C(=O)N[C@@H](CC(=O)O)C(=O)N[C@@H](Cc1ccc(-c2ccccc2)cc1)C(=O)N[C@@H](Cc1ccc(-c2ccccc2)cc1)C(N)=O [3-25, H2N-His-Aib-Glu-Gly-Thr-Phe(2-F)-Ala-Ser-Asp-Bip-Bip-C(O)NH2] (H-H[Aib]EGT[Phe(2-F)]ASD[Bip][Bip]-NH2) the EC50 was 79.1 nM.
Work on C[C@H](NC(=O)[C@@H](NC(=O)[C@H](Cc1ccccc1F)NC(=O)[C@@H](NC(=O)CNC(=O)[C@H](CCC(=O)O)NC(=O)C(C)(C)NC(=O)[C@@H](N)Cc1c[nH]cn1)[C@@H](C)O)[C@@H](C)O)C(=O)N[C@@H](CC(=O)O)C(=O)N[C@@H](Cc1ccc(-c2ccccc2)cc1)C(=O)N[C@@H](Cc1ccc(-c2ccccc2)cc1)C(N)=O [3-26, H2N-His-Aib-Glu-Gly-Thr-Phe(2-F)-Thr-Ala-Asp-Bip-Bip-C(O)NH2] (H-H[Aib]EGT[Phe(2-F)]TAD[Bip][Bip]-NH2) yielded an EC50 of 18.9 nM.
In the case of C[C@H](NC(=O)[C@H](CO)NC(=O)[C@@H](NC(=O)[C@H](Cc1ccccc1F)NC(=O)[C@@H](NC(=O)CNC(=O)[C@H](CCC(=O)O)NC(=O)C(C)(C)NC(=O)[C@@H](N)Cc1c[nH]cn1)[C@@H](C)O)[C@@H](C)O)C(=O)N[C@@H](Cc1ccc(-c2ccccc2)cc1)C(=O)N[C@@H](Cc1ccc(-c2ccccc2)cc1)C(N)=O [3-27, H2N-His-Aib-Glu-Gly-Thr-Phe(2-F)-Thr-Ser-Ala-Bip-Bip-C(O)NH2] (H-H[Aib]EGT[Phe(2-F)]TSA[Bip][Bip]-NH2), the EC50 is reported as 67 nM.
With C[C@H](NC(=O)[C@H](CC(=O)O)NC(=O)[C@H](CO)NC(=O)[C@@H](NC(=O)[C@H](Cc1ccccc1F)NC(=O)[C@@H](NC(=O)CNC(=O)[C@H](CCC(=O)O)NC(=O)C(C)(C)NC(=O)[C@@H](N)Cc1c[nH]cn1)[C@@H](C)O)[C@@H](C)O)C(=O)N[C@@H](Cc1ccc(-c2ccccc2)cc1)C(N)=O [3-28, H2N-His-Aib-Glu-Gly-Thr-Phe(2-F)-Thr-Ser-Asp-Ala-Bip-C(O)NH2] (H-H[Aib]EGT[Phe(2-F)]TSDA[Bip]-NH2) the EC50 was > 1000 nM.
With C[C@H](NC(=O)[C@H](Cc1ccc(-c2ccccc2)cc1)NC(=O)[C@H](CC(=O)O)NC(=O)[C@H](CO)NC(=O)[C@@H](NC(=O)[C@H](Cc1ccccc1F)NC(=O)[C@@H](NC(=O)CNC(=O)[C@H](CCC(=O)O)NC(=O)C(C)(C)NC(=O)[C@@H](N)Cc1c[nH]cn1)[C@@H](C)O)[C@@H](C)O)C(N)=O [3-29, H2N-His-Aib-Glu-Gly-Thr-Phe(2-F)-Thr-Ser-Asp-Bip-Ala-C(O)NH2] the EC50 was > 1000 nM.

Same assay, conditions: cAMP EC50, nM (0.1% albumin), Table 3; 0.1% albumin
Work on C[C@@H](O)[C@H](NC(=O)CNC(=O)[C@H](CCC(=O)O)NC(=O)C(C)(C)NC(=O)C(C)(C)N)C(=O)N[C@@](C)(Cc1ccccc1F)C(=O)N[C@H](C(=O)N[C@@H](CO)C(=O)N[C@@H](CC(=O)O)C(=O)N[C@@H](Cc1ccc(-c2ccccc2)cc1)C(=O)N[C@@H](Cc1ccc(-c2ccccc2)cc1)C(N)=O)[C@@H](C)O [3-30, H2N-Aib-Aib-Glu-Gly-Thr-αMePhe(2-F)-Thr-Ser-Asp-Bip-Bip-C(O)NH2] (H-[Aib][Aib]EGT[αMePhe(2-F)]TSD[Bip][Bip]-NH2) yielded an EC50 of 2.7 nM.
With C[C@@H](O)[C@H](NC(=O)CNC(=O)C(C)(C)NC(=O)C(C)(C)NC(=O)[C@@H](N)Cc1c[nH]cn1)C(=O)N[C@@](C)(Cc1ccccc1F)C(=O)N[C@H](C(=O)N[C@@H](CO)C(=O)N[C@@H](CC(=O)O)C(=O)N[C@@H](Cc1ccc(-c2ccccc2)cc1)C(=O)N[C@@H](Cc1ccc(-c2ccccc2)cc1)C(N)=O)[C@@H](C)O [3-31, H2N-His-Aib-Aib-Gly-Thr-αMePhe(2-F)-Thr-Ser-Asp-Bip-Bip-C(O)NH2] (H-H[Aib][Aib]GT[αMePhe(2-F)]TSD[Bip][Bip]-NH2) the EC50 was 4.9 nM.
Compound C[C@@H](O)[C@H](NC(=O)C(C)(C)NC(=O)[C@H](CCC(=O)O)NC(=O)C(C)(C)NC(=O)[C@@H](N)Cc1c[nH]cn1)C(=O)N[C@@](C)(Cc1ccccc1F)C(=O)N[C@H](C(=O)N[C@@H](CO)C(=O)N[C@@H](CC(=O)O)C(=O)N[C@@H](Cc1ccc(-c2ccccc2)cc1)C(=O)N[C@@H](Cc1ccc(-c2ccccc2)cc1)C(N)=O)[C@@H](C)O [3-32, H2N-His-Aib-Glu-Aib-Thr-αMePhe(2-F)-Thr-Ser-Asp-Bip-Bip-C(O)NH2] (H-H[Aib]E[Aib]T[αMePhe(2-F)]TSD[Bip][Bip]-NH2) has an EC50 of 15.8 nM.
In the case of C[C@@H](O)[C@H](NC(=O)[C@](C)(Cc1ccccc1F)NC(=O)C(C)(C)NC(=O)CNC(=O)[C@H](CCC(=O)O)NC(=O)C(C)(C)NC(=O)[C@@H](N)Cc1c[nH]cn1)C(=O)N[C@@H](CO)C(=O)N[C@@H](CC(=O)O)C(=O)N[C@@H](Cc1ccc(-c2ccccc2)cc1)C(=O)N[C@@H](Cc1ccc(-c2ccccc2)cc1)C(N)=O [3-33, H2N-His-Aib-Glu-Gly-Aib-αMePhe(2-F)-Thr-Ser-Asp-Bip-Bip-C(O)NH2] (H-H[Aib]EG[Aib][αMePhe(2-F)]TSD[Bip][Bip]-NH2), the EC50 is reported as 7.3 nM.
